According to publication PMC11245519, “Ubiquitous purine sensor modulates diverse signal transduction pathways in bacteria” (Nature Communications, 2024):
Read-outs that look alike come from different tables or passages of the source.

Columns and labels:
[1] = test system: members of the family dCache_1PU (11 soluble LBDs); assay: Thermal shift ligand screening of all dCache_1PU proteins (Biolog arrays PM3B and PM5); type: binding
[2] = test system: R4 (WP_199478134-LBD); assay: Thermal shift assay of the R4 LBD; type: binding, Marinomonas spartinae; conditions: change in Tm, threshold 2 °C
[3] = target: T1, R6 (WP_185834821-LBD) (Vibrio cholerae, UniProt Q9KPY8); assay: biochemical; type: binding
[4] = target: T2, R15 (WP_207952809-LBD) (Paenibacillus agricola, UniProt A0ABX0IZG8); assay: Microcalorimetric titration (ITC) of the R15 LBD with ligands; type: binding, Paenibacillus sp. S3N08; conditions: for Kd / Binding in microcalorimetric titration, R15: 25 °C; for Kd: pH 7.0, read-out: Dissociation constant, R15; for N value, R15: One binding site model, * = hyperbolic curve; for Binding in microcalorimetric titration, R15: pH 7.0
T2 sequence (A0ABX0IZG8 entry or part of it): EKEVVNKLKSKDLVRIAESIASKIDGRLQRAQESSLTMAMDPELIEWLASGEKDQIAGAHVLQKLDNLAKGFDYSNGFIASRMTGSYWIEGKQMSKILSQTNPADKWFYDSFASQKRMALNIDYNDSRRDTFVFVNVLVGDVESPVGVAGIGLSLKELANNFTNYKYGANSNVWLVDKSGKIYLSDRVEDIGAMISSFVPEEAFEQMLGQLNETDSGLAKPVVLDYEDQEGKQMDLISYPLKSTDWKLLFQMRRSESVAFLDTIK

[5] = target: R1 (WP_219614703-LBD) (Aeromonas salmonicida, UniProt T0PLV6); assay: Microcalorimetric titration (ITC) of the R1 LBD with ligands; type: binding; conditions: for Kd: read-out: Dissociation constant, R1
[6] = test system: R10 (WP_110129388-LBD); type: binding, Coraliomargarita sinensis; conditions: change in Tm, threshold 2 °C; for Binding in thermal shift assay, R10: 2 mM ligand (Supplementary Fig. 7)
[7] = test system: R5 (WP_131005693-LBD); assay: Thermal shift assay of the R5 LBD; type: binding, Clostridioides difficile; conditions: change in Tm, threshold 2 °C
[8] = test system: R11 (WP_162024566-LBD); assay: Thermal shift assay of the R11 LBD; type: binding, Lentimonas sp. CC4; conditions: change in Tm, threshold 2 °C
[9] = target: R14 (WP_021170906-LBD) (Sporomusa ovata, UniProt A0A0U1L1T7); assay: Microcalorimetric titration (ITC) of the R14 LBD with ligands; type: binding; conditions: for Kd: read-out: Dissociation constant, R14
Sequence of R14 (WP_021170906-LBD) (A0A0U1L1T7 entry or part of it): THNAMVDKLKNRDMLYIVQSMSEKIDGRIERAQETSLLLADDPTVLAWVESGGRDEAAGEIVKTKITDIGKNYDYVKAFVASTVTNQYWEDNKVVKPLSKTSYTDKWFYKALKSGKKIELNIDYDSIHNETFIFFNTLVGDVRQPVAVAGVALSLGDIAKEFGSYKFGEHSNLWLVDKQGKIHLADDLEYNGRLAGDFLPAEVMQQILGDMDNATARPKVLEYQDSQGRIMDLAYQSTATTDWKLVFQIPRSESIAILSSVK

[10] = test system: R6 diguanylate cyclase (VC2224) expressed in P. putida KT2440 pCdrA::gfpC; type: cell-based
[11] = test system: R13 (WP_167859577-LBD); type: binding, Paenibacillus cymbidii; conditions: change in Tm, threshold 2 °C; 2 mM ligand (Supplementary Fig. 7)
[12] = test system: R11 (WP_162024566-LBD); assay: Microcalorimetric titration (ITC) of the R11 LBD with ligands; type: binding, Lentimonas sp. CC4; conditions: 25 °C; for Binding in microcalorimetric titration, R11: pH 7.0
[13] = test system: dCache_1PU domains (11 proteins analyzed); assay: Summary of binding data (thermal shift assays and ITC) for the 11 dCache_1PU proteins; conditions: of the 11 proteins analyzed
[14] = test system: R5 (WP_131005693-LBD); assay: Microcalorimetric titration (ITC) of the R5 LBD with ligands; type: binding, Clostridioides difficile; conditions: 25 °C, pH 7.0
[15] = target: R8 (WP_227113344-LBD) (Eggerthella sinensis, UniProt A0ABX9HL97); assay: Microcalorimetric titration (ITC) of the R8 LBD with ligands; type: binding
[16] = target: T1, R6 (WP_185834821-LBD); assay: Thermal shift assay of the R6 LBD; type: binding; conditions: change in Tm, threshold 2 °C
[17] = target: R4 (WP_199478134-LBD); type: binding, Marinomonas spartinae; conditions: ITC, 25 °C, pH 8.0; read-out: Dissociation constant, R4
[18] = target: T2, R15 (WP_207952809-LBD); assay: Thermal shift assay of the R15 LBD; type: binding, Paenibacillus sp. S3N08; conditions: change in Tm, threshold 2 °C
[19] = ITC, One binding site model, * = hyperbolic curve

SMILES | Shift in the thermal shift assays [1] | Kd ([5]; ITC, 25 °C, pH 7.0) [µM] | Binding in thermal shift assay, R5 [7] | Kd ([9]; ITC, 25 °C) [µM] | N value, R14 [9, 19] | Binding in thermal shift assay, R13 [11] | Binding in microcalorimetric titration, R11 [12] | Binding in microcalorimetric titration, R15 [4] | Kd [17] [µM] | further results
CN [methylamine] | did not produce any significant shift | – | – | – | – | – | – | – | – | –
Nc1nc2c(ncn2[C@@H]2O[C@H](CO)[C@@H](O)[C@H]2O)c(=O)[nH]1 [Guanosine] | – | 1.2 ± 0.1 | Nts^b (no binding observed in thermal shift assays, i.e., compounds caused changes in the midpoint of protein unfolding (Tm) of less than 2 °C) | 25 ± 4.9 | 0.13 | Nts^b (no binding observed in thermal shift assays, i.e., compounds caused changes in the midpoint of protein unfolding (Tm) of less than 2 °C) | – | – | – | Binding in thermal shift assay, R4 [2]: Nts^b (no binding observed in thermal shift assays, i.e., compounds caused changes in the midpoint of protein unfolding (Tm) of less than 2 °C); Kd [3]: 25 ± 5.2 µM; N value, R6 [3, 19]: 0.35; Kd [4]: 37 ± 4 µM; N value, R15 [4]: 0.70; N value, R1 [5, 19]: 0.21; Binding in thermal shift assay, R10 [6]: Tsa^c (binding observed in thermal shift assays, i.e., compounds caused changes in Tm of more than 2 °C); Binding in thermal shift assay, R11 [8]: Tsa^c (binding observed in thermal shift assays, i.e., compounds caused changes in Tm of more than 2 °C); Concentration causing high c-di-GMP levels ([10]; agar plates, wild-type R6 (VC2224)): 1 mM; Concentration at which colonies became wrinkly (onset of the response) ([10]; minimal medium agar plates, 24 h, 30 °C, wild-type R6): 100 µM
O=c1[nH]c(=O)c2nc[nH]c2[nH]1 [Xanthine] | – | – | – | 5.1 ± 0.9 | 0.13 | Nts^b (no binding observed in thermal shift assays, i.e., compounds caused changes in the midpoint of protein unfolding (Tm) of less than 2 °C) | Nb^a | – | – | Binding in thermal shift assay, R4 [2]: Nts^b (no binding observed in thermal shift assays, i.e., compounds caused changes in the midpoint of protein unfolding (Tm) of less than 2 °C); Kd [4]: 7.6 ± 1.1 µM; N value, R15 [4]: 0.05; Binding in microcalorimetric titration, R1 ([5]; ITC, 25 °C, pH 7.0): Nb^a; Proteins that bound / recognized the ligand [13]: 2; Binding in thermal shift assay, R10 [6]: Tsa^c (binding observed in thermal shift assays, i.e., compounds caused changes in Tm of more than 2 °C); Binding in microcalorimetric titration, R5 [14]: Nb^a; N value, R8 ([15]; One binding site model, * = hyperbolic curve): 0.15; Binding in thermal shift assay, R6 [16]: Nts^b (no binding observed in thermal shift assays, i.e., compounds caused changes in the midpoint of protein unfolding (Tm) of less than 2 °C)
c1ncc2nc[nH]c2n1 [Purine] | – | – | – | 94 ± 19 | 0.19 | Nts^b (no binding observed in thermal shift assays, i.e., compounds caused changes in the midpoint of protein unfolding (Tm) of less than 2 °C) | Nb^a | Nb^a | 2.3 ± 0.3 | Binding in microcalorimetric titration, R5 [14]: Nb^a
NC(=O)CC[C@H](N)C(=O)O [L-Gln] | did not produce any significant shift | – | – | – | – | – | – | – | – | –
N[C@@H](Cc1c[nH]c2ccccc12)C(=O)O [L-Trp] | did not produce any significant shift | – | – | – | – | – | – | – | – | –
Nc1ncnc2c1ncn2[C@@H]1O[C@H](CO)[C@@H](O)[C@H]1O [Adenosine] | – | 1.1 ± 0.1 | Nts^b (no binding observed in thermal shift assays, i.e., compounds caused changes in the midpoint of protein unfolding (Tm) of less than 2 °C) | 17 ± 4.1 | – | Nts^b (no binding observed in thermal shift assays, i.e., compounds caused changes in the midpoint of protein unfolding (Tm) of less than 2 °C) | Nb^a | Nb^a | 88 ± 12 | N value, R1 [5]: 0.13; Binding in thermal shift assay, R10 (Supplementary Table 3) ([6]; cells left empty in Table 3): Nts (No binding observed in thermal shift assays, i.e. compounds caused changes in the midpoint of protein unfolding (Tm) of less than 2 ºC); N value, R14 [9]: 0.41; Binding in thermal shift assay, R6 [16]: Nts^b (no binding observed in thermal shift assays, i.e., compounds caused changes in the midpoint of protein unfolding (Tm) of less than 2 °C)
NCCO [ethanolamine] | did not produce any significant shift | – | – | – | – | – | – | – | – | –
C[N+](C)(C)CCO [choline] | did not produce any significant shift | – | – | – | – | – | – | – | – | –
Cc1c[nH]c(=O)[nH]c1=O [Thymine] | – | 595 ± 47 | Nts^b (no binding observed in thermal shift assays, i.e., compounds caused changes in the midpoint of protein unfolding (Tm) of less than 2 °C) | 32 ± 8.9 | 0.99 | Nts^b (no binding observed in thermal shift assays, i.e., compounds caused changes in the midpoint of protein unfolding (Tm) of less than 2 °C) | – | Nb^a | 21 ± 0.4 | Kd ([12]; pH 7.0, 1 mM β-mercaptoethanol, read-out: Dissociation constant, R11): 854 ± 254 µM; N value, R1 [5, 19]: 0.20
NC(=O)NC1NC(=O)NC1=O (stereo not shown) [Allantoin] | – | – | Nts^b (no binding observed in thermal shift assays, i.e., compounds caused changes in the midpoint of protein unfolding (Tm) of less than 2 °C) | – | – | Nts^b (no binding observed in thermal shift assays, i.e., compounds caused changes in the midpoint of protein unfolding (Tm) of less than 2 °C) | Nb^a | – | – | Binding in thermal shift assay, R4 [2]: Nts^b (no binding observed in thermal shift assays, i.e., compounds caused changes in the midpoint of protein unfolding (Tm) of less than 2 °C); Binding in thermal shift assay, R15 [18]: Nts^b (no binding observed in thermal shift assays, i.e., compounds caused changes in the midpoint of protein unfolding (Tm) of less than 2 °C); Binding in microcalorimetric titration, R14 ([9]; ITC, 25 °C): Nb^a; Binding in microcalorimetric titration, R8 ([15]; 25 °C, pH 6.0): Nb^a
Nc1cc[nH]c(=O)n1 [Cytosine] | – | 1460 | Nts^b (no binding observed in thermal shift assays, i.e., compounds caused changes in the midpoint of protein unfolding (Tm) of less than 2 °C) | 105 ± 20 | 0.46 | Nts^b (no binding observed in thermal shift assays, i.e., compounds caused changes in the midpoint of protein unfolding (Tm) of less than 2 °C) | Nb^a | Nb^a | 74 ± 15 | N value, R1 [5, 19]: 0.21
